This is an account of results in ChEMBL document CHEMBL1157539, “Thousands of chemical starting points for antimalarial lead identification” (Nature, 2010).

Values joined by “and” are separate entries in the source; they are usually repeats but may differ in a detail not shown here. Equal entries are not always repeated. Structures can show the parent of a compound that is named as a salt.

The test system of the assay is Plasmodium falciparum. Put plainly: GSK_TCMDC: Inhibition of Plasmodium falciparum 3D7 in whole erythrocytes, using parasite LDH activity as an index of growth. The assay is classed as functional, organism-based.

Regarding `Oc1nc(Cc2ccccc2)nc2ccc(Cl)cc12`, the XC50 (Plasmodium falciparum, 3D7) was 879 nM. Same read-out and setting: in the case of `COc1cc(Cc2cnc(NCCN3CCNCC3)nc2N)ccc1OCc1ccc(C(F)(F)F)cc1` it was 922 nM. On the same count and under the same terms, to `COc1cc(Cc2c(C)nc3nc(N)nc(N)c3c2C)c(Br)c(OC)c1OC` belongs 404 nM.

In the case of `CN1CCN(CCCN(Cc2csc(-c3ccc(CNCc4ccccc4)cc3)n2)S(=O)(=O)c2cccc3cccnc23)CC1`, under “Plasmodium falciparum, 3D7”, the XC50 worked out at 1410 nM. The same measure, in the same setting: to `Oc1ccc(CCCNc2nc(NCc3cccc4ccccc34)nc(N3CCNCC3)n2)cc1` belongs 808 nM; to `O=C(Nc1ccc(-c2ccccc2)cc1)Nc1cccc(Cn2ncc(N3CCNCC3)c(Cl)c2=O)c1`, 456 nM. On the same count and under the same terms, in the case of `CN(C)CCOc1ccc(-c2cc(-c3ccc(Cl)c(O)c3)c(-c3ccncc3)[nH]2)cc1` it was 580 nM.

Where the note is “Plasmodium falciparum, 3D7”, `COc1cc(Cc2cnc(N)nc2N)ccc1Oc1ccc(N)cc1` returned an XC50 of 868 nM.

On to `CCOC(=O)NC1=NC(C)(C)N(OCc2cccc3c2ccc2ccccc23)C(NC(=O)OCC)=N1`, for which the XC50 (Plasmodium falciparum, 3D7) was 172 nM. Same read-out and setting: in the case of `CC(C)OC(=O)c1ccc(NC(=O)N[C@@H](Cc2ccc(O)cc2)C(=O)NC2CC3CCC(C2)N3Cc2ccccc2)cc1` (stereo partly drawn) it was 1080 nM; in that of `COCCNCc1cccc(-c2ccc(CN(C(=O)Nc3ccccc3)C3CCN(Cc4ccccc4)CC3)cc2)c1`, 773 nM; in that of `Fc1ccc(N(c2nc(-c3cc(F)cc(C(F)(F)F)c3)cs2)C2CCNCC2)cc1`, 956 nM.

For the molecule `CNC(=O)c1cc(S(=O)(=O)N2CCN(c3ccccn3)CC2)c(C)s1`, the XC50 (Plasmodium falciparum, 3D7) was 1160 nM. On the same count and under the same terms, in the case of `COc1cccc(CN2CCCN(Cc3cccc(NC(=O)c4cc5ccccc5s4)c3)CC2)c1` it was 1010 nM; in that of `O=C(Nc1c(F)cccc1F)c1cccc(-c2nn3ccccc3c2-c2ccnc(Nc3cccc(-c4cnco4)c3)n2)c1`, 361 nM; in that of `Cc1nc2ccc3ccc(CNc4ccc(C#N)cc4)cc3c2c(=O)[nH]1`, 1440 nM. The molecule `O=C(Cc1cccc(Cl)c1)N1CCc2cc3nccc(N4CCN5CCC[C@H]5C4)c3cc21` registered an XC50 (Plasmodium falciparum, 3D7) of 854 nM. The same measure, in the same setting: in the case of `Cc1ccccc1CN1CCCN(Cc2ccc(C(=O)Nc3ccc(Cl)cc3)cc2)CC1` it was 944 nM; in that of `Cc1cc(C(=O)OCC(=O)Nc2c(C)n(C)n(-c3ccccc3)c2=O)c(C)n1-c1ccc(F)cc1`, 53.9 nM; in that of `CC1CCc2sc(-c3nnc(SC(C)C(=O)NC4CC4)o3)cc2C1` (stereo not drawn), 1210 nM. On the same count and under the same terms, in the case of `O=C(Nc1cccc(CN2CCN(C(=O)c3ccccc3)CC2)c1)c1cccs1` it was 308 nM; in that of `CC1CCC(C(C)C)C(OC(=O)CSc2nnc3c(n2)[nH]c2ccccc23)C1` (stereo not drawn), 931 nM. On the same count and under the same terms, to `Cc1occc1C(=O)Nc1nc(-c2ccccn2)nc2ccsc12` belongs 899 nM. Regarding `CSc1nccc(-c2ccc(S(=O)(=O)NC3CCC(CN4CCC(c5c[nH]c6ccccc56)CC4)CC3)s2)n1` (stereo not drawn), the XC50 is 811 nM and 254 nM. In turn, `NCc1ccc(CNCc2cccc(-c3ccc(-c4nc5ccccc5[nH]4)cc3)c2)cc1` registered an XC50 (Plasmodium falciparum, 3D7) of 717 nM. Still for that read-out and setting: to `Clc1ccc(-c2ccc(C=NNc3nc(=Nc4ccccc4)[nH]c(=Nc4ccccc4)[nH]3)o2)cc1Cl` belongs 736 nM.

For `COc1cc(-c2nc(C(C)(C)CN)[nH]c2-c2ccncc2)ccc1Br`, the XC50 (Plasmodium falciparum, 3D7) was found to be 769 nM.

For the molecule `CN(C)CCCNc1ncnc2c1[nH]c1ccc(F)cc12`, the XC50 (Plasmodium falciparum, 3D7) came to 732 nM.

In the case of `Cc1cccc2nc(-c3ccc(-c4cccc(NC(=O)NCc5ccc(F)cc5)c4)cc3)[nH]c12`, the XC50 (Plasmodium falciparum, 3D7) came to 146 nM. As to `Cc1ccc2c(C3=CCN(CCCCC4(C)C(=O)Nc5c(F)cccc54)CC3)c(C)[nH]c2c1` (stereo not drawn), the XC50 (Plasmodium falciparum, 3D7) is 265 nM. The same measure, in the same setting: in the case of `O=C(/C=C/c1ccc(I)cc1)NCCCCCN1CCC(c2c[nH]c3ccc(O)cc23)CC1` it was 773 nM; in that of `O=[N+]([O-])c1cccc(C(Nc2ccccn2)c2ccc3cccnc3c2O)c1` (stereo not drawn), 1330 nM. The same measure, in the same setting: in the case of `CCCCCC(=O)N1CCOC(CCN2CCC(c3ccccc3)CC2)(c2ccc(Cl)c(Cl)c2)C1` (stereo not drawn) it was 1120 nM. `O=S(=O)(NCCN1CCCC1)c1ccc(-c2ccc(CNCc3ccsc3)cc2)cc1` registered an XC50 (Plasmodium falciparum, 3D7) of 853 nM. Still for that read-out and setting: in the case of `CCOC(=O)c1[nH]c2cc(Cl)cc(Cl)c2c1/C=C/C(=O)Nc1ccc(-c2cnc(NC(C)=O)[nH]2)cc1` it was 1020 nM; in that of `Cc1noc(C)c1-c1ccc2c(Nc3ccccc3C(C)(C)C)c(C(=O)NCc3ccc(C(F)(F)F)cc3)cnc2c1`, 762 nM. Still for that read-out and setting: in the case of `CC[C@H](C)CNC(=O)c1cncc(-c2cccc(CN3CCC(N4CCCC4)CC3)c2)c1` it was 1170 nM. Same read-out and setting: to `CN(Cc1ccccc1)C(=O)c1nn(CCCN2CCC(N3CCCC3)CC2)cc1-c1ccc(Cl)c(Cl)c1` belongs 767 nM; to `Nc1ncc(-c2cn[nH]c2)cc1-c1nc2cc(Cl)cnc2[nH]1`, 915 nM; to `CCCCCCN1CCCN(Cc2ccc(C(=O)Nc3ccc(CC)cc3)cc2)CC1`, 756 nM.

`CC(C)Nc1nc(NC2CCCCC2)nc(N2CCCCCCC2)n1` had an XC50 (Plasmodium falciparum, 3D7) of 1090 nM. Same read-out and setting: to `NC(=O)Nc1ccc2c(Nc3ccc(OCc4ccccc4)cc3)ncnc2c1` belongs 1260 nM. In turn, `CC(Cc1ccc(Sc2ccccc2)cc1)NCC(O)c1cccc(C(F)(F)F)c1` (stereo not drawn) came in with an XC50 (Plasmodium falciparum, 3D7) of 589 nM. `Nc1nccc2ccc(-c3ccsc3)cc12` showed an XC50 (Plasmodium falciparum, 3D7) of 332 nM. Same read-out and setting: in the case of `CCCCOc1cc(CNCCCCCCNCc2cc(OCCCC)cc3ccccc23)c2ccccc2c1` it was 736 nM; in that of `Cc1nn(-c2ccccc2)c2nc(-c3ccccc3)cc(C(=O)N3CCOCC3)c12`, 872 nM. Same read-out and setting: to `COc1cc2nc(NCCc3ccccc3)nc(N(C)Cc3ccccc3)c2cc1OC` belongs 831 nM; to `CCc1ccc(CN2CCC(NC(=O)c3cc(-c4ccc(N(C)C)cc4)cs3)C2)cc1` (stereo not drawn), 1440 nM. The same measure, in the same setting: to `CC1(C)N=C(N)N=C(Nc2ccc(Cl)cc2)N1` belongs 336 nM; to `CN(C)CCN(C)Cc1ccc(-c2ccc3c(Nc4ccc(Cl)cc4F)ccnc3c2)o1`, 360 nM; to `CCCOc1cc(Cc2cnc(N)nc2N)cc(OC)c1OC`, 1170 nM. Turning to `N=C(N)c1ccc(OCCCCCOc2ccc(C(=N)N)cc2)cc1` [PENTAMIDINE HYDROCHLORIDE], the XC50 (Plasmodium falciparum, 3D7) came out at 140 nM. On the same count and under the same terms, in the case of `CCn1c(SCC(=O)Nc2cc(C(F)(F)F)ccc2Cl)nc2ccccc2c1=O` it was 397 nM; in that of `Cc1cc(C(=O)Nc2ccc(-c3ccccc3)cc2)no1`, 694 nM; in that of `CC1CN(c2ccc3occ(C(=O)Nc4ccc(-c5ccncc5)c(Cl)c4)c3c2)CC(C)N1C` (stereo not drawn), 855 nM. The same measure, in the same setting: in the case of `COc1ccc(C2CCN(CCN3CCC(NC(=O)c4cccc(-c5ccncc5)c4)CC3)CC2)c(OC)c1` it was 797 nM; in that of `Cc1nn(CCOC(=O)NC(NCC2COc3ccccc3O2)C(Cl)(Cl)Cl)cc1[N+](=O)[O-]` (stereo not drawn), 917 nM.

With `c1cncc(-c2cc(N3CCCCC3)nc(-c3ccncc3)n2)c1`, the XC50 (Plasmodium falciparum, 3D7) is 767 nM. The same measure, in the same setting: to `CC1CN(c2ccnc3ccc(Sc4ccc(Oc5ccccc5)cc4)cc23)CC(C)N1` (stereo not drawn) belongs 785 nM; to `COc1cc(N)cc2sc(N)nc12`, 251 nM. On the same count and under the same terms, in the case of `O=C1NC(=O)C(c2ccc(Cl)cc2)=C1Nc1cccc(S(=O)(=O)C(F)(F)F)c1` it was 744 nM.

As for `COc1ccc(CCNCCCCCCNCCc2cccc([N+](=O)[O-])c2)cc1OC`, the XC50 (Plasmodium falciparum, 3D7) is 997 nM. Same read-out and setting: in the case of `Cc1ccc(O)cc1Nc1ccnc2cc(-c3csc(CN4CCN(C)CC4)n3)ccc12` it was 597 nM; in that of `CC(C)COc1ccc(Cl)cc1Cc1nc(-c2nc3ccc(CN4CCN(C)CC4)cc3[nH]2)co1`, 912 nM. On the same count and under the same terms, in the case of `COc1ccc(-c2nccc(NC(=N)NCc3ccccc3)n2)cc1` it was 671 nM; in that of `COc1ccc(CCC(C)N2CC(N)C(c3cn(C)c4cnccc34)C2)cc1` (stereo not drawn), 1360 nM. The same measure, in the same setting: to `O=C(c1cccc(-c2noc(C(F)(F)F)n2)c1)N1CCN(C(=O)c2ccc3cc[nH]c3c2)CC1` belongs 107 nM; to `O=C(/C=C/c1ccc(Cl)cc1)NCCCCCN1CCCN(C(=O)Nc2ccc(F)c(Cl)c2)CC1`, 781 nM.

With `Cc1cccc(CNc2nc(C)cc(N[C@@H](Cc3ccccc3)C(=O)NCCc3ccccc3)n2)c1`, the XC50 (Plasmodium falciparum, 3D7) is 673 nM. Still for that read-out and setting: to `CC(=O)Nc1cc(C(=O)Nc2cccc(-c3cccc(-c4nc5cccc(C)c5[nH]4)c3)c2)ccc1C` belongs 329 nM; to `CCn1c2ccccc2c2cc(Cc3cnc(N)nc3N)ccc21`, 221 nM. On the same count and under the same terms, in the case of `O=C1C(c2ccccc2)=C(Nc2cc(Cl)cc(Cl)c2)c2ccccc21` it was 372 nM. Same read-out and setting: to `COc1ccc(C=NN=c2cc(C)[nH]c3ccc(C)cc23)c2ccccc12` belongs 864 nM; to `CCc1c(CCNCCCCCCNCCc2ccc(OC)c(OC)c2CC)ccc(OC)c1OC`, 735 nM. `O=C(CCCCCNC(=O)c1ccc(O)c(-c2ccc(Cl)c(Cl)c2)c1)NCc1cccc2ccccc12`: the XC50 (Plasmodium falciparum, 3D7) turned out to be 762 nM. The same measure, in the same setting: to `Cc1cccc2nc(-c3ccc(-c4ccc(NC(=O)NC5CC5c5ccccc5)cc4)cc3)[nH]c12` (stereo not drawn) belongs 876 nM; to `COc1ccc(-c2cnc(N)c(-c3nc4cc(Br)ccc4[nH]3)c2)cc1`, 1560 nM. The same measure, in the same setting: to `Cc1cc(N[C@@H](Cc2ccccc2)C(=O)NC2CCCC2)nc(NCC2CCCCC2)n1` belongs 1170 nM; to `COc1ccc(C=Cc2ccc(-c3c(C)[nH]c(C)c(Cl)c3=O)cc2)cc1OC`, 283 nM; to `CCC[C@@H]([C@@H](CC1CCCCC1)C(=O)N[C@H](C(=O)Nc1nccs1)C(C)(C)SC)N(O)C=O`, 152 nM. The same measure, in the same setting: in the case of `O=C(Nc1nc(-c2ccccn2)cs1)c1ccccc1COc1ccccc1` it was 972 nM; in that of `CCCNCc1ccc(-c2ccc(CN(Cc3ccc4c(c3)OCO4)C(=O)Cc3cccnc3)cc2)nc1`, 862 nM; in that of `Nc1nc(N)c2cc(C#Cc3ccc(-c4ccccc4)cc3)ccc2n1`, 810 nM. In the case of `O=C(/C=C/c1ccc(Cl)c(Cl)c1)NCCCCCN1CCC(NC(=O)NCCc2ccccc2)CC1`, the XC50 (Plasmodium falciparum, 3D7) stood at 722 nM.

As to `COc1ccc2c(c1)CCCC2C(C)NCC(O)c1cccc(C(F)(F)F)c1` (stereo not drawn), the XC50 (Plasmodium falciparum, 3D7) worked out at 345 nM. The same measure, in the same setting: in the case of `O=C(/C=C/c1ccc(Cl)c(Cl)c1)NCCC1CCC(N2CCC(c3c[nH]c4ccc(O)cc34)CC2)CC1` (stereo not drawn) it was 762 nM; in that of `Fc1cc(Cl)ccc1Nc1ccnc2cc(I)ccc12`, 1130 nM. Same read-out and setting: to `O=C(c1ccc(-c2cnc3[nH]cc(-c4ccc(C(=O)N5CCOCC5)cc4)c3c2)cc1)N1CCOCC1` belongs 1000 nM.
